Source: patent US9283233B2, “Method for on-demand contraception” (LABORATOIRE HRA PHARMA, priority 2009, dated 2016)

Assays:
[1] = 3 months of continuous daily administration to healthy cycling volunteers; assessment of ovarian hormones, follicular development, endometrial histology, bleeding patterns; assay type: in vivo, women; conditions: one patient, 10 mg/day, missed 2 days of drug (days 1 and 2) in third treatment cycle
Description: For that purpose, health cycling volunteers received 3 months of continuous daily administration of ulipristal acetate (2.5, 5 or 10 mg) or placebo.
Assessment of ovarian hormones, follicular development, endometrial histology, and menstrual bleeding patterns was carried out during the third month of treatment.
This made the inventors think that ulipristal acetate could be used as a contraceptive which could be taken on-demand, rather than everyday as any hormonal contraceptive pill.

[2] = Multiple intakes of ulipristal acetate within a menstrual cycle after declared intercourse (pregnancy outcome); assay type: in vivo; conditions: 30 mg after a declared intercourse, twice during a menstrual cycle; several women (5 in the table)
Description: Multiple Intakes of Ulipristal Acetate within a Menstrual Cycle
Several women received ulipristal acetate (30 mg) after a declared intercourse, twice during a menstrual cycle.

[3] = single dose of 50 mg, within 72 hours after unprotected intercourse; cited from earlier work

CC(=O)O[C@]1(C(C)=O)CC[C@H]2[C@@H]3CCC4=CC(=O)CCC4=C3[C@@H](c3ccc(N(C)C)cc3)C[C@@]21C [ulipristal acetate, 17α-acetoxy-11β-[4-N,N-dimethylamino-phenyl)-19-norpregna-4,9-diene-3,20-dione]
luteal activity or ovulation [1]: no sign of luteal activity or ovulation | pregnancy [2]: No pregnancy was observed | safety and efficacy as emergency contraception [3]: safe and efficacious
